System: yeast genes (level of expressed mRNA)
Experiment: DNA chip analysis of expressed mRNA of yeast genes after 2 h culture with a toxic chemical substance
Type: cell-based, Saccharomyces cerevisiae S288C
Method: Yeast (Saccharomyces cerevtisiae S288C (α SUC2mal mel gap2 CUP1)) were cultured at 25° C. on YPD medium (yeast extract 1%, polypepton 2%, glucose 2%). One of toxic chemical substances was added to the cell at logarithmic growth phase, and the cell was further cultured for two hours. Cell was cultured without any chemical substance in the same condition, and was used as control. Concentrations of the chemical substances were defined to inhibit the growth of the yeast but not lead to death.
After the completion of cultivation, the culture was centrifuged to collect the cells. To the cells, sodium acetate buffer (50 mM sodium acetate, 10 mM EDTA, 1% SDS) was added, and the mixture was shaken at 65° C. for five minutes, followed by returning to room temperature, and obtaining the supernatant, which procedure was repeated two times. To the supernatant, ½ amount of a solution of phenol/chloroform was added, and the mixture was centrifuged to give a supernatant, which was added with an equal amount of chloroform, and the mixture was centrifuged to give a supernatant. To the supernatant, an equal amount of isopropanol containing 0.3 M sodium acetate was added, and the mixture was allowed to stand at room temperature for 30 minutes, after which the mixture was centrifuged to give a sediment of the whole RNAs. Seventy % ethanol was added to the sediment, and the mixture was again centrifuged to give a sediment, which was then dried and dissolved in water. mRNA was isolated from the whole RNAs as followings. In view of the fact that a poly A chain is attached to the 3′ terminus of mRNA, a polynucleotide having a poly T structure which was immobilized on the surface of latex beads was used to trap the mRNA, and then the mRNA was washed and eluted with spine column (Oligotex-dT30<Super>mRNA Purification Kit, Takara). Reverse transcription of the mRNA was conducted with a reverse transcriptase (Super Script II Reverse Transcriptase; catalogue No. 18064-014, GibcoBRL) using fluorescence-labeled nucleotides to give cDNAs that were introduced with Cy3-dUTP or Cy5-dUTP during the reverse transcription.
The labeled cDNAs were dissolved in TE buffer (10 mM Tris-HCl/1 mM EDTA, pH8.0), and the solution was dropped on the DNA chip containing the whole genes of yeast (DNA Chip Research Inc. Japan) so that the cDNAs were hybridized on the DNA chip at 65° C. for over 12 hours. The fluoresces intensity of the DNA chip was read with a scanner, and the ratio relative to the fluorescence intensity resulting from the absence of chemical substance was estimated as the following, which is shown in Tables 1 to 9: [formula]
In the Tables, “Intensity” indicated in the rightmost column is a value of the level of expressed mRNA of each gene in control cells as divided by the average level of the expressions of the whole genes.

## S=C([S-])NCCNC(=S)[S-].[Zn+2] [(11), zinc N,N′-ethylenebis(dithiocarbamate)]
Gene YML029W
  The level of expressed mRNA in the presence of chemical substance/absence: YML029W: 1.2
Gene YML041C
  The level of expressed mRNA in the presence of chemical substance/absence: YML041C: 0.9
Gene YML079W
  The level of expressed mRNA in the presence of chemical substance/absence: YML079W: 1.2
Gene YML110C
  level of expressed mRNA in the presence of chemical substance/in its absence: 1.7
Gene YML118W
  The level of expressed mRNA in the presence of chemical substance/absence: YML118W: 1.3
Gene YMR068W
  The level of expressed mRNA in the presence of chemical substance/absence: YMR068W: 1.1
Gene YMR071C
  The level of expressed mRNA in the presence of chemical substance/absence: YMR071C: 1.2
Gene YMR105C
  level of expressed mRNA in the presence of chemical substance/in its absence: 3.0
Gene YMR114C
  The level of expressed mRNA in the presence of chemical substance/absence: YMR114C: 1.0
Gene YMR115W
  The level of expressed mRNA in the presence of chemical substance/absence: YMR115W: 1.1
Gene YMR160W
  The level of expressed mRNA in the presence of chemical substance/absence: YMR160W: 1.0
Gene YMR189W
  level of expressed mRNA in the presence of chemical substance/in its absence: 8.2
Gene YMR258C
  The level of expressed mRNA in the presence of chemical substance/absence: YMR258C: 1.4
Gene YMR271C
  level of expressed mRNA in the presence of chemical substance/in its absence: 1.7
Gene YMR272C
  level of expressed mRNA in the presence of chemical substance/in its absence: 0.8
Gene YMR296C
  level of expressed mRNA in the presence of chemical substance/in its absence: 0.8
Gene YNL012W
  level of expressed mRNA in the presence of chemical substance/in its absence: 1.6
Gene YNL026W
  The level of expressed mRNA in the presence of chemical substance/absence: YNL026W: 1.1
Gene YNL037C
  level of expressed mRNA in the presence of chemical substance/in its absence: 1.4
Gene YNL045W
  level of expressed mRNA in the presence of chemical substance/in its absence: 2.1
Gene YNL058C
  The level of expressed mRNA in the presence of chemical substance/absence: YNL058C: 1.0
Gene YNL063W
  The level of expressed mRNA in the presence of chemical substance/absence: YNL063W: 1.1
Gene YNL104C
  level of expressed mRNA in the presence of chemical substance/in its absence: 2.1
Gene YNL106C
  level of expressed mRNA in the presence of chemical substance/in its absence: 0.9
Gene YNL130C
  level of expressed mRNA in the presence of chemical substance/in its absence: 1.5
Gene YNL169C
  level of expressed mRNA in the presence of chemical substance/in its absence: 0.8
Gene YNL176C
  The level of expressed mRNA in the presence of chemical substance/absence: YNL176C: 1.2
Gene YNL181W
  The level of expressed mRNA in the presence of chemical substance/absence: YNL181W: 1.2
Gene YNL191W
  The level of expressed mRNA in the presence of chemical substance/absence: YNL191W: 1.0
Gene YNL194C
  The level of expressed mRNA in the presence of chemical substance/absence: YNL194C: 17.1
Gene YNL200C
  The level of expressed mRNA in the presence of chemical substance/absence: YNL200C: 3.1
Gene YNL212W
  The level of expressed mRNA in the presence of chemical substance/absence: YNL212W: 1.3
Gene YNL231C
  level of expressed mRNA in the presence of chemical substance/in its absence: 1.3
Gene YNL253W
  The level of expressed mRNA in the presence of chemical substance/absence: YNL253W: 0.8
Gene YNL265C
  The level of expressed mRNA in the presence of chemical substance/absence: YNL265C: 0.9
Gene YNL276C
  The level of expressed mRNA in the presence of chemical substance/absence: YNL276C: 0.7
Gene YNL322C
  level of expressed mRNA in the presence of chemical substance/in its absence: 0.6
Gene YNR002C
  level of expressed mRNA in the presence of chemical substance/in its absence: 1.6
Gene YNR019W
  level of expressed mRNA in the presence of chemical substance/in its absence: 0.7
Gene YNR033W
  level of expressed mRNA in the presence of chemical substance/in its absence: 0.4
Gene YNR051C
  The level of expressed mRNA in the presence of chemical substance/absence: YNR051C: 1.5
Gene YNR059W
  level of expressed mRNA in the presence of chemical substance/in its absence: 1.0
Gene YOL026C
  The level of expressed mRNA in the presence of chemical substance/absence: YOL026C: 1.2
Gene YOL030W
  The level of expressed mRNA in the presence of chemical substance/absence: YOL030W: 1.3
Gene YOL058W
  level of expressed mRNA in the presence of chemical substance/in its absence: 2.3
Gene YOL126C
  level of expressed mRNA in the presence of chemical substance/in its absence: 1.8
Gene YOL143C
  level of expressed mRNA in the presence of chemical substance/in its absence: 2.0
Gene YOL153C
  level of expressed mRNA in the presence of chemical substance/in its absence: 2.4
Gene YOL157C
  level of expressed mRNA in the presence of chemical substance/in its absence: 1.2
Gene YOR022C
  The level of expressed mRNA in the presence of chemical substance/absence: YOR022C: 1.7
Gene YOR087W
  The level of expressed mRNA in the presence of chemical substance/absence: YOR087W: 1.3
Gene YOR088W
  The level of expressed mRNA in the presence of chemical substance/absence: YOR088W: 0.8
Gene YOR099W
  level of expressed mRNA in the presence of chemical substance/in its absence: 1.2
Gene YOR130C
  level of expressed mRNA in the presence of chemical substance/in its absence: 0.6
Gene YOR136W
  level of expressed mRNA in the presence of chemical substance/in its absence: 1.4
Gene YOR138C
  The level of expressed mRNA in the presence of chemical substance/absence: YOR138C: 0.7
Gene YOR155C
  The level of expressed mRNA in the presence of chemical substance/absence: YOR155C: 1.6

— patent US20050112573A1, “Method of detecting toxic substance” (priority 2001, published 2005)
